Experimental data reported in patent US10167262B2, “Herbicidal substituted 3-arylpyrazoles” (FMC CORPORATION, priority 2014, dated 2019).

System: windgrass (Apera spica-venti)
Assay: Test C postemergence greenhouse test, plant response rating 0-100
Type: in vivo
Conditions: 62 g ai/ha
Procedure, shortened: (§1)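 Formulated compounds applied postemergence; plants 1- to 4-leaf stage. Evaluated visually vs. untreated controls after roughly two weeks (13–15 d) under greenhouse conditions; 100 denotes complete control.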

SMILES | Plant response rating (0 to 100), Windgrass
CCn1cc(C(=O)c2ccccc2)c(-c2cc(Br)cc(Br)c2)n1 [Compound 38] | 0

Same assay, conditions: 125 g ai/ha

SMILES | Plant response rating (0 to 100), Windgrass
CCn1cc(C(=O)c2ccccc2)c(-c2cc(Br)cc(Br)c2)n1 [Compound 38] | 0

Same assay, conditions: 250 g ai/ha, scale 0 to 100

SMILES | Plant response rating, Windgrass
CCn1cc(C(=O)c2ccccc2)c(-c2cc(Br)cc(Br)c2)n1 [Compound 38] | 0

System: cocklebur (common cocklebur, Xanthium strumarium)
Assay: as above
Type: in vivo
Conditions: 31 g ai/ha
Procedure, shortened: as §1

SMILES | Plant response rating (0 to 100), Cocklebur
CCn1cc(C(=O)c2ccccc2)c(-c2cc(Br)cc(Br)c2)n1 [Compound 38] | 5

Same assay, conditions: 62 g ai/ha

SMILES | Plant response rating (0 to 100), Cocklebur
CCn1cc(C(=O)c2ccccc2)c(-c2cc(Br)cc(Br)c2)n1 [Compound 38] | 10

Same assay, conditions: 125 g ai/ha

SMILES | Plant response rating (0 to 100), Cocklebur
CCn1cc(C(=O)c2ccccc2)c(-c2cc(Br)cc(Br)c2)n1 [Compound 38] | 15

Same assay, conditions: 250 g ai/ha, scale 0 to 100

SMILES | Plant response rating, Cocklebur
CCn1cc(C(=O)c2ccccc2)c(-c2cc(Br)cc(Br)c2)n1 [Compound 38] | 15

System: green foxtail (Setaria viridis)
Assay: as above
Type: in vivo
Conditions: 31 g ai/ha
Procedure, shortened: as §1

SMILES | Plant response rating (0 to 100), Foxtail, Green
CCn1cc(C(=O)c2ccccc2)c(-c2cc(Br)cc(Br)c2)n1 [Compound 38] | 0

Same assay, conditions: 62 g ai/ha

SMILES | Plant response rating (0 to 100), Foxtail, Green
CCn1cc(C(=O)c2ccccc2)c(-c2cc(Br)cc(Br)c2)n1 [Compound 38] | 0

Same assay, conditions: 125 g ai/ha

SMILES | Plant response rating (0 to 100), Foxtail, Green
CCn1cc(C(=O)c2ccccc2)c(-c2cc(Br)cc(Br)c2)n1 [Compound 38] | 0

Same assay, conditions: 250 g ai/ha, scale 0 to 100

SMILES | Plant response rating, Foxtail, Green
CCn1cc(C(=O)c2ccccc2)c(-c2cc(Br)cc(Br)c2)n1 [Compound 38] | 5

System: woolly cupgrass (Eriochloa villosa)
Assay: as above
Type: in vivo
Conditions: 31 g ai/ha
Procedure, shortened: as §1

SMILES | Plant response rating (0 to 100), Cupgrass, Woolly
CCn1cc(C(=O)c2ccccc2)c(-c2cc(Br)cc(Br)c2)n1 [Compound 38] | 0

Same assay, conditions: 62 g ai/ha

SMILES | Plant response rating (0 to 100), Cupgrass, Woolly
CCn1cc(C(=O)c2ccccc2)c(-c2cc(Br)cc(Br)c2)n1 [Compound 38] | 0

Same assay, conditions: 125 g ai/ha

SMILES | Plant response rating (0 to 100), Cupgrass, Woolly
CCn1cc(C(=O)c2ccccc2)c(-c2cc(Br)cc(Br)c2)n1 [Compound 38] | 0

Same assay, conditions: 250 g ai/ha, scale 0 to 100

SMILES | Plant response rating, Cupgrass, Woolly
CCn1cc(C(=O)c2ccccc2)c(-c2cc(Br)cc(Br)c2)n1 [Compound 38] | 0

System: downy bromegrass (Bromus tectorum)
Assay: as above
Type: in vivo
Conditions: 31 g ai/ha
Procedure, shortened: as §1

SMILES | Plant response rating (0 to 100), Bromegrass, Downy
CCn1cc(C(=O)c2ccccc2)c(-c2cc(Br)cc(Br)c2)n1 [Compound 38] | 0

Same assay, conditions: 62 g ai/ha

SMILES | Plant response rating (0 to 100), Bromegrass, Downy
CCn1cc(C(=O)c2ccccc2)c(-c2cc(Br)cc(Br)c2)n1 [Compound 38] | 0

Same assay, conditions: 125 g ai/ha

SMILES | Plant response rating (0 to 100), Bromegrass, Downy
CCn1cc(C(=O)c2ccccc2)c(-c2cc(Br)cc(Br)c2)n1 [Compound 38] | 0

Same assay, conditions: 250 g ai/ha, scale 0 to 100

SMILES | Plant response rating, Bromegrass, Downy
CCn1cc(C(=O)c2ccccc2)c(-c2cc(Br)cc(Br)c2)n1 [Compound 38] | 0

System: deadnettle (henbit deadnettle, Lamium amplexicaule)
Assay: as above
Type: in vivo
Conditions: 31 g ai/ha
Procedure, shortened: as §1

SMILES | Plant response rating (0 to 100), Deadnettle
CCn1cc(C(=O)c2ccccc2)c(-c2cc(Br)cc(Br)c2)n1 [Compound 38] | 0

Same assay, conditions: 62 g ai/ha

SMILES | Plant response rating (0 to 100), Deadnettle
CCn1cc(C(=O)c2ccccc2)c(-c2cc(Br)cc(Br)c2)n1 [Compound 38] | 0

Same assay, conditions: 125 g ai/ha

SMILES | Plant response rating (0 to 100), Deadnettle
CCn1cc(C(=O)c2ccccc2)c(-c2cc(Br)cc(Br)c2)n1 [Compound 38] | 0

Same assay, conditions: 250 g ai/ha, scale 0 to 100

SMILES | Plant response rating, Deadnettle
CCn1cc(C(=O)c2ccccc2)c(-c2cc(Br)cc(Br)c2)n1 [Compound 38] | 5

System: canarygrass (Phalaris minor)
Assay: as above
Type: in vivo
Conditions: 31 g ai/ha
Procedure, shortened: as §1

SMILES | Plant response rating (0 to 100), Canarygrass
CCn1cc(C(=O)c2ccccc2)c(-c2cc(Br)cc(Br)c2)n1 [Compound 38] | 0

Same assay, conditions: 62 g ai/ha

SMILES | Plant response rating (0 to 100), Canarygrass
CCn1cc(C(=O)c2ccccc2)c(-c2cc(Br)cc(Br)c2)n1 [Compound 38] | 0

Same assay, conditions: 125 g ai/ha

SMILES | Plant response rating (0 to 100), Canarygrass
CCn1cc(C(=O)c2ccccc2)c(-c2cc(Br)cc(Br)c2)n1 [Compound 38] | 0

Same assay, conditions: 250 g ai/ha, scale 0 to 100

SMILES | Plant response rating, Canarygrass
CCn1cc(C(=O)c2ccccc2)c(-c2cc(Br)cc(Br)c2)n1 [Compound 38] | 5

System: winter barley (Hordeum vulgare)
Assay: as above
Type: in vivo
Conditions: 31 g ai/ha
Procedure, shortened: as §1

SMILES | Plant response rating (0 to 100), Barley
CCn1cc(C(=O)c2ccccc2)c(-c2cc(Br)cc(Br)c2)n1 [Compound 38] | 0

Same assay, conditions: 62 g ai/ha

SMILES | Plant response rating (0 to 100), Barley
CCn1cc(C(=O)c2ccccc2)c(-c2cc(Br)cc(Br)c2)n1 [Compound 38] | 0

Same assay, conditions: 125 g ai/ha

SMILES | Plant response rating (0 to 100), Barley
CCn1cc(C(=O)c2ccccc2)c(-c2cc(Br)cc(Br)c2)n1 [Compound 38] | 0

Same assay, conditions: 250 g ai/ha, scale 0 to 100

SMILES | Plant response rating, Barley
CCn1cc(C(=O)c2ccccc2)c(-c2cc(Br)cc(Br)c2)n1 [Compound 38] | 0

System: surinam grass (Brachiaria decumbens)
Assay: as above
Type: in vivo
Conditions: 62 g ai/ha
Procedure, shortened: as §1

SMILES | Plant response rating (0 to 100), Surinam Grass
CCn1cc(C(=O)c2ccccc2)c(-c2cc(Br)cc(Br)c2)n1 [Compound 38] | 0

Same assay, conditions: 125 g ai/ha

SMILES | Plant response rating (0 to 100), Surinam Grass
CCn1cc(C(=O)c2ccccc2)c(-c2cc(Br)cc(Br)c2)n1 [Compound 38] | 0

Same assay, conditions: 250 g ai/ha, scale 0 to 100

SMILES | Plant response rating, Surinam Grass
CCn1cc(C(=O)c2ccccc2)c(-c2cc(Br)cc(Br)c2)n1 [Compound 38] | 0

System: sedge, umbrella (small-flower umbrella sedge, Cyperus difformis)
Assay: Test B flooded paddy test, plant response rating 0-100
Type: in vivo
Conditions: Flood, 250 g ai/ha; scale 0 to 100 (0 no effect, 100 complete control); 13 to 15 days
Procedure, shortened: (§2)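 Test compounds are applied straight into paddy water held 3 cm above the soil surface, with that flood maintained for the whole test. After 13 to 15 days in the greenhouse, each species is scored visually relative to controls.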

SMILES | Plant response rating, Sedge, Umbrella
CCn1cc(C(=O)c2ccccc2)c(-c2cc(Br)cc(Br)c2)n1 [Compound 38] | 0

System: rice (Oryza sativa)
Assay: as above
Type: in vivo
Conditions: Flood, 250 g ai/ha; scale 0 to 100 (0 no effect, 100 complete control); 13 to 15 days
Procedure, shortened: as §2

SMILES | Plant response rating, Rice
CCn1cc(C(=O)c2ccccc2)c(-c2cc(Br)cc(Br)c2)n1 [Compound 38] | 0

System: barnyardgrass (Echinochloa crus-galli)
Assay: as above
Type: in vivo
Conditions: Flood, 250 g ai/ha; scale 0 to 100 (0 no effect, 100 complete control); 13 to 15 days
Procedure, shortened: as §2

SMILES | Plant response rating, Barnyardgrass
CCn1cc(C(=O)c2ccccc2)c(-c2cc(Br)cc(Br)c2)n1 [Compound 38] | 0

System: ducksalad (Heteranthera limosa)
Assay: as above
Type: in vivo
Conditions: Flood, 250 g ai/ha; scale 0 to 100 (0 no effect, 100 complete control); 13 to 15 days
Procedure, shortened: as §2

SMILES | Plant response rating, Ducksalad
CCn1cc(C(=O)c2ccccc2)c(-c2cc(Br)cc(Br)c2)n1 [Compound 38] | 0
